What was measured:
11β-hsd-1 enzyme [1] = target: T1, 11β-hsd-1 enzyme (Homo sapiens, UniProt P28845); test: biochemical; conditions: read-out: % Inh @ 0.1 mM; for inhibition at 100 µM: Table 2, inhibitor 0.1 mM as printed
In short: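 Human 11β-HSD-1 (5 nM) pre-incubated ≥30 min with inhibitor and 500 μM NADPH in triethanolamine buffer pH 8.0 with NaCl, n-dodecyl β-D-maltoside and β-ME; reaction started with G6P/G6PDH/MgCl2 regenerating system and 200 nM 3H-cortisone, run 60 min, stopped with DMSO. 3H-cortisol and substrate separated by radio-HPLC; percent inhibition from peak areas.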

11β-hsd-1 enzyme [2] = target: T1, 11β-hsd-1 enzyme; test: biochemical
In short: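 Enzyme (5 nM) pre-incubated ≥30 min at RT with inhibitor and 500 μM NADPH in triethanolamine buffer pH 8.0; reaction started with glucose-6-phosphate regenerating system and 200 nM 3H-cortisone, stopped with DMSO after 60 min. Product quantified by radio-HPLC; Kiapp from Morrison tight-binding equation.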

T1 sequence (P28845 whole entry, species assumed): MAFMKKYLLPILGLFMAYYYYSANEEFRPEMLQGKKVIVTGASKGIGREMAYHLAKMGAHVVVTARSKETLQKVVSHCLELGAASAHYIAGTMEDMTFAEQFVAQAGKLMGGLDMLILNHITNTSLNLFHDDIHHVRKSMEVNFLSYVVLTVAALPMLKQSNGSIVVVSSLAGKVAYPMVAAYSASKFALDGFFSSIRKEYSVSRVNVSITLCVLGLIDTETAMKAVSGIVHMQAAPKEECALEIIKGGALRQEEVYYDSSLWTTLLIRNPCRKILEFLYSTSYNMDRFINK

Structure (SMILES)	inhibition (11β-hsd-1 enzyme [1])	Ki (11β-hsd-1 enzyme [2])	inhibition at 100 µM (11β-hsd-1 enzyme [1])
Cc1ccc(N2CCN(S(=O)(=O)Nc3cccc(C)n3)CC2=O)cc1 [Example 140, 4-(4-methylphenyl)-N-(6-methylpyridin-2-yl)-3-oxopiperazine-1-sulfoflamide]	–	250 nM	85.7%
CCc1cccc(NS(=O)(=O)N2CCN(c3nc4ncccc4o3)CC2)n1 [Example 145, N-(6-ethylpyridin-2-yl)-4-[13]oxazolo[45-b]pyridin-2-ylpiperazine-1-sulfanamide]	79.2%	62 nM	–
CCc1cccc(NS(=O)(=O)N2CCN(c3nc4nc(C)ccc4o3)CC2)n1 [Example 149, N-(6-ethylpyridin-2-yl)-4-(5-methyl[13]oxazolo[45-b]pyridin-2-yl)piperazine-1-sulfonamide]	78.2%	280 nM	–
CCc1cccc(NS(=O)(=O)N2CCCN(c3nc4cc(Cl)ccc4o3)CC2)n1 [Example 150, 4-(5-chloro-13-benzoxazol-2-yl)-N-(6-ethylpyridin-2-yl)-14-diazepane-1-sulfonamide]	90.3%	23 nM	–
Cc1cccc(NS(=O)(=O)N2CCCN(c3nc4cc(Cl)ccc4o3)CC2)n1 [Example 153, 4-(5-chloro-13-benzoxazol-2-yl)-N-(6-methylpyridin-2-yl)-14-diazepane-1-sulfonamide]	–	8.2 nM	100%
O=S(=O)(Nc1ccc2ccccc2n1)N1CCN(c2ncccn2)CC1 [Example 154, 4-pyrimidin-2-yl-N-quinolin-2-ylpiperazine-1-sulfonamide]	100%	5.1 nM	–
O=S(=O)(Nc1ccc2ccccc2n1)N1CCCCCCC1 [Example 155, N-quinolin-2-ylazocane-1-sulfonamide]	90.6%	7.1 nM	–
CCOC(=O)N1CCN(S(=O)(=O)Nc2ccc3ccccc3n2)CC1 [Example 160, ethyl 4-[(quinolin-2-ylamino)sulfonyl]piperazine-1-carboxylate]	85.7%	11 nM	–
N#Cc1cccnc1N1CCN(S(=O)(=O)Nc2ccc3ccccc3n2)CC1 [Example 162, 4-(3-cyanopyridin-2-yl)-N-quinolin-2-ylpiperazine-1-sulfonamide]	92.2%	26 nM	–
O=C(OCc1ccccc1)N1CCCN(S(=O)(=O)Nc2ccc3ccccc3n2)CC1 [Example 164, benzyl 4-[(quinolin-2-ylamino)sulfonyl]-14-diazepane-1-carboxylate]	81.4%	38 nM	–
COc1cccc(N2CCN(S(=O)(=O)Nc3ccc4ccccc4n3)CC2)n1 [Example 165, 4-(6-methoxypyridin-2-yl)-N-quinolin-2-ylpiperazine-1-sulfonamide]	100%	1.4 nM	–
O=S(=O)(Nc1ccc2ccccc2n1)N1CCCN(c2nc3cc(Cl)ccc3o2)CC1 [Example 180, 4-(5-chloro-13-benzoxazol-2-yl)-N-quinolin-2-yl-14-diazepane-1-sulfonamide]	100%	20 nM	–

Results, then the compound that gave them:

inhibition (11β-hsd-1 enzyme [1])	Ki (11β-hsd-1 enzyme [2])	inhibition at 100 µM (11β-hsd-1 enzyme [1])	Structure (SMILES)
71%	330 nM	–	Cc1cccc(NS(=O)(=O)N2CCCN(c3ncccn3)CC2)n1 [Example 133, N-(6-methylpyridin-2-yl)-4-pyrimidin-2-yl-14-diazepane-1-sulfonamide]
76.7%	110 nM	–	Cc1cccc(NS(=O)(=O)N2CCCN(C(=O)OCc3ccccc3)CC2)n1 [Example 134, benzyl 4-{[(6-methylpyridin-2-yl)amino]sulfonyl}-14-diazepane-1-carboxylate]
93.7%	6.5 nM	–	COc1cccc(N2CCN(S(=O)(=O)Nc3cccc(C)n3)CC2)n1 [Example 136, 4-(6-methoxypyridin-2-yl)-N-(6-methylpyridin-2-yl)piperazine-1-sulfonamide]
93.8%	9.9 nM	–	COc1ccc2oc(N3CCN(S(=O)(=O)Nc4cccc(C)n4)CC3)nc2c1 [Example 137, 4-(5-methoxy-13-benzoxazol-2-yl)-N-(6-methylpyridin-2-yl)piperazine-1-sulfonamide]
–	8.4 nM	100%	Cc1cccc(NS(=O)(=O)N2CCN(c3nc4ccc(Cl)cc4o3)CC2)n1 [Example 138, 4-(6-chloro-13-benzoxazol-2-yl)-N-(6-methylpyridin-2-yl)piperazine-1-sulfonamide]
86.5%	88 nM	–	Cc1cccc(NS(=O)(=O)N2CCCN(c3ncccc3C#N)CC2)n1 [Example 139, 4-(3-cyanopyridin-2-yl)-N-(6-methylpyridin-2-yl)-14-diazepane-1-sulfonamide]
100%	1 nM	–	CCc1cccc(NS(=O)(=O)N2CCN(c3ncc(-c4ccc(OC)cc4)cn3)CC2)n1 [Example 144, N-(6-ethylpyridin-2-yl)-4-[5-(4-methoxyphenyl)pyrimidin-2-yl]piperazine-1-sulfonamide]
83.9%	26 nM	–	CCc1cccc(NS(=O)(=O)N2CCc3nc(-c4ccccc4)nc(C(=O)NC)c3C2)n1 [Example 148, 6-{[(6-ethylpyridin-2-yl)amino]sulfonyl}-N-methyl-2-phenyl-5678-tetrahydro-pyrido[43-d]pyrimidine-4-carboxamide]
100%	1 nM	–	COc1ccc(-c2cnc(N3CCN(S(=O)(=O)Nc4cccc(C)n4)CC3)nc2)cc1 [Example 151, 4-[5-(4-methoxyphenyl)-pyrimidin-2-yl]-N-(6-methylpyridin-2-yl)piperazine-1-sulfonamide]
92.9%	17 nM	–	O=S(=O)(Nc1ccc2ccccc2n1)N1CCN(c2ccccn2)CC1 [Example 156, 4-pyridin-2-yl-N-quinolin-2-ylpiperazine-1-sulfonamide]
–	32 nM	100%	O=S(=O)(Nc1ccc2ccccc2n1)N1CCCCCC1 [Example 157, N-quinolin-2-ylazepane-1-sulfonamide]
91.9%	16 nM	–	Cc1cccc(N2CCN(S(=O)(=O)Nc3ccc4ccccc4n3)CC2)n1 [Example 161, 4-(6-methylpyridin-2-yl)-N-quinolin-2-ylpiperazine-1-sulfonamide]
100%	16 nM	–	COc1ccc2oc(N3CCN(S(=O)(=O)Nc4ccc5ccccc5n4)CC3)nc2c1 [Example 166, 4-(5-methoxy-13-benzoxazol-2-yl)-N-quinolin-2-ylpiperazine-1-sulfonamide]
84.6%	68 nM	–	O=C1CN(S(=O)(=O)Nc2ccc3ccccc3n2)CCN1C1CCCC1 [Example 169, 4-cyclopentyl-3-oxo-N-quinolin-2-ylpiperazine-1-sulfonamide]
–	130 nM	75.5%	O=C1CN(S(=O)(=O)Nc2ccc3ccccc3n2)CCN1Cc1ccc(F)cc1 [Example 173, 4-(4-fluorobenzyl)-3-oxo-N-quinolin-2-ylpiperazine-1-sulfonamide]
70.4%	110 nM	–	O=S(=O)(Nc1ccc2ccccc2n1)N1CCN(c2nc3ncccc3o2)CC1 [Example 176, 4-[13]oxazolo[45-b]pyridin-2-yl-N-quinolin-2-ylpiperazine-1-sulfonamide]
73.3%	190 nM	–	O=C(c1ccc(N2CCN(S(=O)(=O)Nc3ccc4ccccc4n3)CC2)nc1)N1CCOCC1 [Example 178, 4-[5-(morpholin-4-ylcarbonyl)pyridin-2-yl]-N-quinolin-2-ylpiperazine-1-sulfonamide]

Source: patent US20070027118A1 (priority 2005, published 2007)
